Measurements taken from paper PMC3701070 (PLoS ONE, 2013).

Tests used:
[1] = test system: Human Foreskin Fibroblasts (HFF, wild-type BRAF); experiment: Cell cycle analysis; assay type: cell-based; conditions: concentrations up to 10 µM
Description: (§1) Cells were permeabilized, DNA was stained with propidium iodide, and samples were read on a BD LSRII flow cytometer. Data were analyzed using the cell cycle platform of FlowJo v6.1.1 software.
(§2) Cell cycle phases are shown in stacked format as a percentage of the total population. […] (PPTX) Click here for additional data file.

SK-MEL-28 cells = experiment: Cell cycle analysis; assay type: cell-based, human; conditions: SK-MEL-28 (BRAF^V600E), 72-hour exposure
Description: as §1, §2

A375P cells = experiment: Cell cycle analysis; assay type: cell-based, human; conditions: A375P (BRAF^V600E), 72-hour exposure
Description: as §1, §2

[2] = test system: phospho-MEK1/2 (pMEK) in ES-2 ovarian carcinoma (BRAF^V600E) cells; experiment: Western blot, pMEK in ES-2 cells; assay type: cell-based; conditions: Homo sapiens; ES-2 cells (BRAF^V600E), 1 h, immunoblot; read-out: IC50 for pMEK inhibition
Description: Cells were lysed in 25 mM Tris-HCl pH 7.5, 2 mM EDTA, 2 mM EGTA, 1% Triton X-100, 0.1% SDS, 50 mM sodium-β-glycerophosphate, 2 mM Na3VO4, 12.5 mM sodium pyrophosphate, 2× Complete EDTA-free mini protease inhibitor tablets (Roche), 2× phosphatase inhibitor cocktails I and II (Sigma-Aldrich). Protein concentrations were determined by Bio-Rad DC™ or dye-based protein assays and lysates were resolved by SDS-PAGE (Invitrogen NuPAGE®) and transferred to PVDF membranes. Membranes were blocked with Odyssey® (LI-COR Biosciences) blocking buffer and incubated with primary antibodies overnight at 4°C. Blots were washed with PBS containing 0.1% Tween-20, incubated with secondary antibodies, and washed again prior to signal detection on a LI-COR Odyssey® reader.
Signals were quantified and used to determine IC50 values. (PPTX) Click here for additional data file.

NEK11 (h) = target: T1, NEK11 (h) (Homo sapiens, UniProt Q8NG66); experiment: Kinase panel (Millipore) enzyme activity; assay type: biochemical
T1 construct: purchased Millipore
T1 sequence (Q8NG66 whole entry): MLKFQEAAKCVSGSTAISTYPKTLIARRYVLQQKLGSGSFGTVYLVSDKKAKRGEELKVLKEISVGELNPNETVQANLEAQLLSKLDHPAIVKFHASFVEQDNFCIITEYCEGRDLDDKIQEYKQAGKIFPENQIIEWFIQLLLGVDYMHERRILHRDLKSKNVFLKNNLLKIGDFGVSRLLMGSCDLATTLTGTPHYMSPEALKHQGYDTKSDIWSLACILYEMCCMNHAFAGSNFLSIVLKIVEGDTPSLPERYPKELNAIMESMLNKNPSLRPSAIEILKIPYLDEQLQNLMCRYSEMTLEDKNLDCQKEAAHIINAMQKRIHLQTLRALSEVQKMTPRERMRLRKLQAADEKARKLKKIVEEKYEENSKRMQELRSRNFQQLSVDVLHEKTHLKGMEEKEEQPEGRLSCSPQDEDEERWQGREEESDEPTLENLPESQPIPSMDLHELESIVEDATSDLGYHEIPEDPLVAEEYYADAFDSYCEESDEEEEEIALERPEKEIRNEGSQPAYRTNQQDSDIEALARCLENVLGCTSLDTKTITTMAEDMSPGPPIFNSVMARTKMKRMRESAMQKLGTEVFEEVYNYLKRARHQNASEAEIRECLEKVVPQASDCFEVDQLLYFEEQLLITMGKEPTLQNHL

BRK (h) = target: T2, BRK (h) (Homo sapiens, UniProt Q13882); experiment: Kinase panel (Millipore) enzyme activity; assay type: biochemical
T2 construct: purchased Millipore
T2 sequence (Q13882 whole entry): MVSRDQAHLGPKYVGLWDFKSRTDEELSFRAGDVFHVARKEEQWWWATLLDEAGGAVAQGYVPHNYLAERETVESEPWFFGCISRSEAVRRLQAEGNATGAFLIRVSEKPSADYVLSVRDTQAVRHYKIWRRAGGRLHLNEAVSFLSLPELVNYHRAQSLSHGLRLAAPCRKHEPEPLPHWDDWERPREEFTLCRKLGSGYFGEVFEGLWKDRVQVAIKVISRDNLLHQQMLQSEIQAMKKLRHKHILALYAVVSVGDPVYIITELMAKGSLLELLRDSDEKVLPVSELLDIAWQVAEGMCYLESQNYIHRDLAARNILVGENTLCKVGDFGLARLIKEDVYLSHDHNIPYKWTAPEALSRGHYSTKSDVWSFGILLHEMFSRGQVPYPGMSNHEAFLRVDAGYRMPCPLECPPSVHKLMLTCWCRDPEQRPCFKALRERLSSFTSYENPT

[3] = test system: A375P tumor xenografts (BRAF^V600E); experiment: Pharmacodynamic markers in A375P tumor xenografts; assay type: in vivo; conditions: A375P xenograft, mice, 30 mg/kg oral once daily
Description: Tumors were harvested, homogenized (BD Bioscience Medimachine) in 1 mL each of ice-cold Western Blot Analysis buffer containing 4 mM sodium pyrophosphate, then centrifuged (18 000×g, 15 min, 4°C), and flash-frozen. Samples were analyzed by duplex ELISA (MesoScale Discovery) for total and phospho ERK1/2 per the manufacturer’s instructions using an MSD SI6000 reader.
A375P tumors were harvested at 6 h after the sixth daily dose with compound or vehicle, cut into samples of ∼100 mm^3 in volume, fixed in 10% neutral-buffered formalin (NBF, VWR) for 24 h, and transferred into 70% ethanol prior to paraffin embedding. Paraffin-embedded blocks were sectioned (4 µm to 5 µm) and immunostained for ppERK, Ki67, and p27^Kip1 by Mosaic Laboratories (Lake Forest, CA).
Phospho-ERK (pERK) is normalized to total ERK (tERK). Tumors harvested 6h post-last 6th dose were stained for Ki67, p27, and ppERK by immunohistochemistry and compared with pre-treatment controls (B). Data are representative of n = 3 studies and percent changes were calculated from the ratio of positively stained cells following drug treatment to those following vehicle control treatment, each as a percentage of the total cell population.

CC(C)(C)c1nc(-c2cccc(NS(=O)(=O)c3c(F)cccc3F)c2F)c(-c2ccnc(N)n2)s1 [dabrafenib]
effect on cell cycle [1]: unaffected
effect on cell cycle (SK-MEL-28 cells): arrested the BRAF^V600E cells at the G1 (2n DNA) phase of the cell cycle
effect on cell cycle (A375P cells): arrested the BRAF^V600E cells at the G1 (2n DNA) phase of the cell cycle
IC50 [2]: 6 nM
IC50 (NEK11 (h)): 20 nM
IC50 (BRK (h)): 79 nM
downregulation of Ki67 in tumors, immunohistochemistry ([3]; 6 h after sixth dose): 28%
downregulation of pERK (ppERK) in tumors, immunohistochemistry ([3]; 6 h after sixth dose): 89%
upregulation of p27 in tumors, immunohistochemistry ([3]; 6 h after sixth dose): 54%
time post-dosing for which reduction of tumor pERK is sustained ([3]; after 7 and 14 days of dosing): up to 18 h
